Source: publication PMC8841438 (Clinical and Translational Science, 2021)

Key:
MATE1 = molecular target: T1, MATE1 (Homo sapiens, UniProt Q96FL8); assay: In vitro transporter inhibition: MATE1; format: in vitro ADME; conditions: data on file at Gilead Sciences, Inc.
T1 sequence (Q96FL8 1-570): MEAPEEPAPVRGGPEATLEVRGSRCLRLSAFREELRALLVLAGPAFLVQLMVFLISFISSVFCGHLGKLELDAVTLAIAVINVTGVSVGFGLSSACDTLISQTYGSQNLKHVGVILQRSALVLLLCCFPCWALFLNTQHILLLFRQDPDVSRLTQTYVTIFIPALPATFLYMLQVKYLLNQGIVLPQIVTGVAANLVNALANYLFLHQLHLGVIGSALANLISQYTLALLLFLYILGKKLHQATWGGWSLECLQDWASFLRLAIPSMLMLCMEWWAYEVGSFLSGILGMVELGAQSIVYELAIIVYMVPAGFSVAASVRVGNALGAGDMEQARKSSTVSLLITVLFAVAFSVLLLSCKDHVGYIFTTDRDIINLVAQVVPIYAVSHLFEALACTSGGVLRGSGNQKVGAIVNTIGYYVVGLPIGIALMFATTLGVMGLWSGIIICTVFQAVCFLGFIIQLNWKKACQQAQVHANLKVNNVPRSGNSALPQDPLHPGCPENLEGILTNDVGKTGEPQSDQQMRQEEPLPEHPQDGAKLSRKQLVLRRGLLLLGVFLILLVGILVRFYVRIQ

MATE2K = MATE2K (Homo sapiens, UniProt Q86VL8); assay: In vitro transporter inhibition: MATE2K; format: in vitro ADME; conditions: data on file at Gilead Sciences, Inc.
[1] = system: organic anion transporting polypeptide 1B3; conditions: in vitro; cited from earlier work
[2] = ulcerative colitis phase IIb/III, cited from earlier work
[3] = system: organic anion transporter 1; conditions: in vitro; at clinically relevant concentrations; cited from earlier work
JAK1 = conditions: whole blood and cellular assays; cited from earlier work
[4] = patients with rheumatoid arthritis

Chain of MATE2K (Q86VL8 1-566 isoform Q86VL8-3): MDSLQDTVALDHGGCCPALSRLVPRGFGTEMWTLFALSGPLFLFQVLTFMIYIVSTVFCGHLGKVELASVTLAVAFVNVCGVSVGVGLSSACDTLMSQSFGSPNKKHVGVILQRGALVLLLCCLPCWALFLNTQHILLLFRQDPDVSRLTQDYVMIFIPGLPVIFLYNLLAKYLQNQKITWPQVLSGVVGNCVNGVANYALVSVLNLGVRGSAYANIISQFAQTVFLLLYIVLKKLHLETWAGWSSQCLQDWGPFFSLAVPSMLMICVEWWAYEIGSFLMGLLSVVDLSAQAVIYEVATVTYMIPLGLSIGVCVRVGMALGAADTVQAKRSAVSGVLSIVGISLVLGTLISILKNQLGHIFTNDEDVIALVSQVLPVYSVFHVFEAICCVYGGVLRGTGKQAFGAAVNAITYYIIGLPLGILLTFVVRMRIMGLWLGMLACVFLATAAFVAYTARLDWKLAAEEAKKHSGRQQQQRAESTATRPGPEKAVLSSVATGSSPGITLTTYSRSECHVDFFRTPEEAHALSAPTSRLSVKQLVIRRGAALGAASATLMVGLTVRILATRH

SMILES: O=C(Nc1nc2cccc(-c3ccc(CN4CCS(=O)(=O)CC4)cc3)n2n1)C1CC1 [Filgotinib]
- inhibition of MATE1 (in words) (MATE1; in vitro data): may inhibit
- ratio of maximum unbound plasma concentration over in vitro IC50 against MATE1 (MATE1; [4]): 0.26
- inhibition of MATE2K (in words) (MATE2K; in vitro data): may inhibit
- ratio of maximum unbound plasma concentration over in vitro IC50 against MATE2K (MATE2K; [4]): 0.44
- inhibition of OATP1B3 [1]: inhibited
- primary end point in the induction studies ([2]; 100 mg dose): did not meet the primary end point
- primary end points (clinical remission at week 10 and week 58) ([2]; 200 mg dose): met all the primary end points
- inhibition of organic anion transporter 1 [3]: not inhibitors
- potency on JAK1 over JAK2, JAK3, tyrosine kinase 2, and other kinases (JAK1): greater than five‐fold higher potency
